Patent US20220389000A1, “PESTICIDALLY ACTIVE CYCLIC AMINE COMPOUNDS” (SYNGENTA CROP PROTECTION AG, priority 2019, published 2022)

How the values were obtained:
[1] = tested on: Tetranychus urticae (Two-Spotted Spider Mite); assay: Example B4: Tetranychus urticae (two-spotted spider mite), feeding/contact activity, sprayed bean leaf discs; type: in vivo; details: foliar, 192 h, application rate 200 ppm, mixed population (mobile stages) on sprayed bean leaf discs, 8 days after infestation
Protocol: Example B4: Tetranychus urticae (Two-Spotted Spider Mite): Feeding/Contact Activity
Bean leaf discs on agar in 24-well microtiter plates were sprayed with aqueous test solutions prepared from 10'000 ppm DMSO stock solutions. After drying the leaf discs were infested with a mite population of mixed ages. The samples were assessed for mortality on mixed population (mobile stages) 8 days after infestation.

[2] = tested on: Plutella xylostella (Diamond Back Moth); assay: Example B3: Plutella xylostella (diamond back moth), treated artificial diet, eggs; type: in vivo; details: 192 h, application rate 200 ppm, eggs on treated artificial diet, 8 days after infestation, vs untreated, read-out: effect in at least one of the two categories (mortality or growth inhibition)
Protocol: Example B3: Plutella xylostella (Diamond Back Moth)
24-well microtiter plates with artificial diet were treated with aqueous test solutions prepared from 10'000 ppm DMSO stock solutions by pipetting. After drying, Plutella eggs were pipetted through a plastic stencil onto a gel blotting paper and the plate was closed with it. The samples were assessed for mortality and growth inhibition in comparison to untreated samples 8 days after infestation.
The following compounds gave an effect of at least 80% in at least one of the two categories (mortality or growth inhibition) at an application rate of 200 ppm: […]

Row | SMILES | mortality at 200 ppm [1] [%] | effect (mortality or growth inhibition) at 200 ppm [2] [%]
1 | Cc1nc(C2CCN(C(=O)c3cc(C(N)=S)c(OCc4ccc(C(F)(F)F)cc4)nc3C(F)(F)F)CC2)no1 [P6.1, 5-[4-(5-Methyl-1,2,4-oxadiazol-3-yl)piperidine-1-carbonyl]-6-(trifluoromethyl)-2-[[4-(trifluoromethyl)phenyl]methoxy]pyridine-3-carbothioamide] | ≥ 80 | 
2 | CC[S+]([O-])CC1CCN(C(=O)c2cc(C#N)c(OCc3ccc(C(F)(F)F)cc3)nc2C(F)(F)F)CC1 (stereo not drawn) [P3.4, 5-[4-(Ethylsulfinylmethyl)piperidine-1-carbonyl]-6-(trifluoromethyl)-2-[[4-(trifluoromethyl)phenyl]methoxy]pyridine-3-carbonitrile] | ≥ 80 | 
3 | N#Cc1cc(C(=O)N2CCN(c3ncc(Cl)cc3Cl)CC2)c(C(F)(F)F)nc1OCc1ccc(C(F)(F)F)cc1 [P2.1, 5-[4-(3,5-dichloro-2-pyridyl)piperazine-1-carbonyl]-6-(trifluoromethyl)-2-[[4-(trifluoromethyl)phenyl]methoxy]pyridine-3-carbonitrile] | ≥ 80 | ≥ 80
4 | Cc1nc(C2CCN(C(=O)c3cc(C#N)c(OCc4ccc(C(F)(F)F)cc4)nc3C(F)F)CC2)no1 [P1.48, 6-(Difluoromethyl)-5-[4-(5-methyl-1,2,4-oxadiazol-3-yl)piperidine-1-carbonyl]-2-[[4-(trifluoromethyl)phenyl]methoxy]pyridine-3-carbonitrile] | ≥ 80 | 
5 | Cc1nc(C2CCN(C(=O)c3cc(C#N)c(OCc4ccc(C(F)(F)F)cc4)nc3C)CC2)no1 [P1.43, 6-Methyl-5-[4-(5-methyl-1,2,4-oxadiazol-3-yl)piperidine-1-carbonyl]-2-[[4-(trifluoromethyl)phenyl]methoxy]pyridine-3-carbonitrile] | ≥ 80 | 
6 | Cc1nc(C2CCN(C(=O)c3cc(C#N)c(OCc4ccc(C(F)(F)F)cc4)nc3C(F)(F)F)CC2)no1 [P1.1, 5-[4-(5-Methyl-1,2,4-oxadiazol-3-yl)piperidine-1-carbonyl]-6-(trifluoromethyl)-2-[[4-(trifluoromethyl)phenyl]methoxy]pyridine-3-carbonitrile] | ≥ 80 | 
7 | Cc1nc(C2CCN(C(=O)c3cc(C#N)c(OCC4CC4(Cl)Cl)nc3C(F)(F)F)CC2)no1 (stereo not drawn) [P4.1, 2-[(2,2-Dichlorocyclopropyl)methoxy]-5-[4-(5-methyl-1,2,4-oxadiazol-3-yl)piperidine-1-carbonyl]-6-(trifluoromethyl)pyridine-3-carbonitrile] | ≥ 80 | ≥ 80
